{"source": "patent US20180117042A1", "about": "“METHODS FOR TREATING RESPIRATORY SYNCYTIAL VIRUS INFECTION” (ALIOS BIOPHARMA, INC., priority 2016, published 2018)", "key": {"[1]": {"test": "half-life of the triphosphate compound (B)", "conditions": "triphosphate formed inside the cell"}, "[2]": {"test_system": "RSV-A Memphis 37b challenge virus", "test": "human RSV challenge model in healthy adults, viral load in nasal washes", "format": "in vivo", "experimental": "Healthy adults received one of the following dosing regimens or placebo over 5 days using the human RSV challenge model.\nPatients were given an intranasal inoculation of RSV-A Memphis 37b challenge virus. Administration of compound (A), or a pharmaceutically acceptable salt thereof, began approximately 12 hours after confirmation of RSV infection as determined by the presence of RSV RNA in nasopharyngeal washes. The test compound was administered as an oral-liquid suspension, wherein the drug vehicle was methyl cellulose and sterile water. The placebo was the drug vehicle without the test compound. Second dosages were started 12 hours after administration of the first dosage, and the remaining second dosages were provided in approximate 12 hour intervals. Nasal washes were collected twice daily approximately 36 to 48 hours after RSV inoculation until Day 12. Viral load was detected and quantified from the aliquots of the nasal wash samples using tissue infectivity plaque assays and PCR. (See DeVincenzo, J. P., et al., Am. J. Respir. Crit. Care. Med. (2010) 182(10):1305-1314) Patients returned for two follow-up visits on Day 16 (±2 days) and Day 28 (±2 days) post-challenge inoculation."}, "[3]": {"test": "SAD/MAD study in pediatric patients hospitalized with RSV infection: safety", "format": "in vivo, human", "conditions": "infants hospitalized with RSV, interim blinded results", "experimental": "One hundred fifty eight otherwise healthy pediatric patients hospitalized with RSV infection were recruited in a randomized, double-blind, placebo-controlled, SAD (single ascending dose) and MAD (multiple ascending dose) study. The patients were randomized into nine SAD, MAD regimens. Subjects not given the placebo were administered lumicitabine or compound (A), a prodrug of the nucleoside analog AL-8112 (otherwise referenced herein as compound (C), the triphosphate of which is a potent inhibitor of the RSV polymerase. The cohort size and dose for the first SAD cohort was prespecified. The makeup of all other cohorts was determined by an Independent Data Monitoring Committee (IDMC) that regularly reviewed data. FIG. 2 provides the single and multiple doses used in the study as well as approximate numbers of subjects dosed. Safety and PK data were collected for 7 (SAD) and 28 (MAD) days post randomization. PK was analyzed using non-linear mixed effect modeling. Part 1 (single ascending dose): Patients received a single dose of 1 of 4 ascending doses of compound (A), (1.37 mg/kg, 4.1 mg/kg, 12 mg/kg and 25 mg/kg) or placebo. Patients received compound (A) for a 7-day consecutive period. Part 2 (multiple ascending dosage): Patients received a loading dosage followed by nine maintenance dosages, or placebo. Patients received compound (A) for a 5-day consecutive period. […]"}, "[4]": {"test_system": "RSV", "conditions": "infants and young children with severe RSV LRTI; cited from earlier work"}, "[5]": {"test": "SAD/MAD study in pediatric patients hospitalized with RSV infection: plasma PK with PK modeling", "format": "in vivo, human", "experimental": "One hundred fifty eight otherwise healthy pediatric patients hospitalized with RSV infection were recruited in a randomized, double-blind, placebo-controlled, SAD (single ascending dose) and MAD (multiple ascending dose) study. The patients were randomized into nine SAD, MAD regimens. Subjects not given the placebo were administered lumicitabine or compound (A), a prodrug of the nucleoside analog AL-8112 (otherwise referenced herein as compound (C), the triphosphate of which is a potent inhibitor of the RSV polymerase. The cohort size and dose for the first SAD cohort was prespecified. The makeup of all other cohorts was determined by an Independent Data Monitoring Committee (IDMC) that regularly reviewed data. FIG. 2 provides the single and multiple doses used in the study as well as approximate numbers of subjects dosed. Safety and PK data were collected for 7 (SAD) and 28 (MAD) days post randomization. PK was analyzed using non-linear mixed effect modeling.\nPart 1 (single ascending dose): Patients received a single dose of 1 of 4 ascending doses of compound (A), (1.37 mg/kg, 4.1 mg/kg, 12 mg/kg and 25 mg/kg) or placebo. Patients received compound (A) for a 7-day consecutive period.\nPart 2 (multiple ascending dosage): Patients received a loading dosage followed by nine maintenance dosages, or placebo. Patients received compound (A) for a 5-day consecutive period. The maintenance dosages were administered twice daily. In the twice daily dosage regimen, the first maintenance dosage was given 8-18 hours after the loading dosage (dosage 1).\nA PK model was developed integrating adult and pediatric data to aid calculation of PK parameters and project efficacious doses. For pediatric dose and exposure projections three age cohorts were used: 1-<2 months, 2-<6 month and 6-<12 months. Apparent clearance increased with dose, creatinine clearance and body weight (using allometric principles). Maturation functions were applied for age dependent changes in Carboxylesterase 1 abundance on bioavailability and kidney function on renal elimination. […]"}}, "data": [{"compound": "Nc1ccn([C@@H]2O[C@](CCl)(COP(=O)(O)OP(=O)(O)OP(=O)(O)O)[C@@H](O)[C@H]2F)c(=O)n1", "note": "[Compound (B)]", "values": [{"measurement": "half-life", "setting": "[1]", "value": "~17.6", "unit": "h"}]}, {"compound": "CC(C)C(=O)OC[C@@]1(CCl)O[C@@H](n2ccc(N)nc2=O)[C@H](F)[C@@H]1OC(=O)C(C)C", "note": "[compound (A), Lumicitabine]", "values": [{"measurement": "RSV viral load compared to the placebo", "setting": "[2]; all regimens (750/150 mg, 750/500 mg, 375 mg), oral, 5 days, FIG. 1", "value": "marked reduction"}, {"measurement": "RSV RNA", "setting": "[2]; at Day 12, all treated patients", "value": "undetectable"}, {"measurement": "RSV RNA", "setting": "[2]; at Day 16 follow-up", "value": "undetectable"}, {"measurement": "RSV RNA", "setting": "[2]; at Day 28 follow-up", "value": "undetectable"}, {"measurement": "laboratory abnormalities", "setting": "[2]; healthy adults, 5 days dosing", "value": "no clinically significant laboratory abnormalities"}, {"measurement": "treatment discontinuation during the study", "setting": "[2]; healthy adults, 5 days dosing", "value": "no patient discontinued treatment"}, {"measurement": "reduction of plaque forming units equivalents (PFUe/mL)", "setting": "[2]; patients who received 750 mg on Day 1, within the first 24 hours", "value": "multi-log reduction"}, {"measurement": "tolerability", "setting": "[3]; multiple doses up to 60/40 mg/kg", "value": "well tolerated"}, {"measurement": "tolerability", "setting": "[3]; single doses up to 25 mg/kg", "value": "well tolerated"}]}, {"compound": "NC(=O)c1ncn([C@@H]2O[C@H](CO)[C@@H](O)[C@H]2O)n1", "note": "[aerosolized ribavirin, ribavirin]", "values": [{"measurement": "clinical benefit of treatment", "setting": "[4]", "value": "failed to impart any clinically significant benefits"}]}, {"compound": "Nc1ccn([C@@H]2O[C@@](CO)(CCl)[C@@H](O)[C@H]2F)c(=O)n1", "note": "[compound (C)]", "values": [{"measurement": "AUC(0-t)", "setting": "[5]; human, plasma, doses of 40/20 mg/kg and 60/40 mg/kg compound (A), actual concentrations with PK modeling (FIG. 3), read-out: plasma AUC0-24", "value": "8000 to 20000", "unit": "ng·h/mL"}, {"measurement": "accumulation", "setting": "[5]; multiple dosing", "value": "no accumulation"}, {"measurement": "plasma exposures with increasing ALS-8176 doses (dose proportionality)", "setting": "[5]; oral", "value": "less than dose proportional"}]}]}
